From patent US9878070B2, “Malleable implants including an oxysterol and methods of use” (Warsaw Orthopedic, Inc., priority 2015, dated 2018)
Entries after “also recorded” stand apart in the source; their conditions may differ.

Columns and labels:
[1] = tested on: multipotent mesenchymal cells such as M2-10B4 (M2) marrow stromal cells and C3H10T1/2 embryonic fibroblasts; conditions: cited from earlier work
[2] = tested on: rat two-level spine model; assay: Posterolateral spinal fusion in a rat two-level spine model (radiographs, manual palpation); type: in vivo; conditions: collagen/ceramic matrix wetted with sterile water, bilateral in posterolateral space, 4-week and 8-week timepoints
Procedure: FIG. 6 illustrates uses of a formulation of malleable implants having 20 mg of Oxy133 on each side of the implant, in accordance with the malleable implants described herein. […] A dry composition of a matrix containing Oxy133, collagen and ceramic as described herein was prepared and wetted with sterile water to be implanted in rat spines as shown in FIG. 6. The wetted matrix was cut in half with a razor blade to yield two halves. The two implants were molded into cylindrical shapes prior to insertion and were positioned bilaterally in the posterolateral space of each test subject. Each implant contained 20 mg Oxy133. Radiographs were taken roughly 10 minutes after the procedure, 4 weeks after the procedure, and 8 weeks after the procedure. […] Fusion was tested at 8-week sacrifice by manual palpation. […] A dry composition of a matrix containing Oxy133, collagen and ceramic as described herein was prepared and wetted with sterile water to be implanted in rat spines as shown in FIG. 6. The wetted matrix was cut in half with a razor blade to yield two halves. The two implants were molded into cylindrical shapes prior to insertion and were positioned bilaterally in the posterolateral space of each test subject. Each implant contained 125 mg Oxy133. Radiographs were taken roughly 10 minutes after the procedure, 4 weeks after the procedure, and 8 weeks after the procedure. […]

| Compound | osteogenic differentiation [1] | bridging bone across the transverse processes of L3-L5 / bone growth (radiographs) ([2]; 20 mg Oxy133 per implant) | bridging bone across the transverse processes of L3-L5 / bone growth (radiographs) ([2]; 125 mg Oxy133 per implant) |
| --- | --- | --- | --- |
| CC(C)CCC[C@](C)(O)[C@H]1CC[C@H]2[C@@H]3CC=C4C[C@@H](O)CC[C@]4(C)[C@H]3CC[C@@]21C [20(S)-hydroxycholesterol] | induce osteogenic differentiation |  |  |
| CC(C)CC[C@@H](O)[C@@H](C)[C@H]1CC[C@H]2[C@@H]3CC=C4C[C@@H](O)CC[C@]4(C)[C@H]3CC[C@]12C [22(R)-hydroxycholesterol] | induce osteogenic differentiation |  |  |
| CC(C)CC[C@H](O)[C@@H](C)[C@H]1CC[C@H]2[C@@H]3CC=C4C[C@@H](O)CC[C@]4(C)[C@H]3CC[C@]12C [22(S)-hydroxycholesterol] | induce osteogenic differentiation |  |  |
| CCCCCC[C@](C)(O)[C@H]1CC[C@H]2[C@@H]3C[C@H](O)[C@H]4C[C@@H](O)CC[C@]4(C)[C@H]3CC[C@@]21C [Oxy133, (3S,5S,6S,8R,9S,10R,13S,14S,17S) 17-((S)-2-hydroxyoctan-2-yl)-10,13-dimethylhexadecahydro-1H-cyclopenta[a]phenanthrene-3,6-diol] |  | promoted bridging bone; also recorded: Bone growth in rat test subjects can be seen | promoted bridging bone; also recorded: Bone growth in rat test subjects can be seen |
